Values after ≈ are worked out from the molar mass of the structure shown.

The solubility is the concentration that dissolves in the medium under given conditions.

The nature of data set [1]: Solubility of prodrug in water or 0.1 N aqueous HCl (HPLC of filtrate). As to conditions: thermodynamic from solid.
Experimental: (§1) Approximately 3 mg of prodrug was weighed into a vial and 750 μL of water or 0.1 N aqueous HCl was added. The mixtures were vortexed to wet the solids. The mixtures were equilibrated for 1 hour with gentle agitation in a constant temperature water bath (T=25° C. for water samples and T=37° C. for 0.1 N HCl samples). After equilibration, the mixtures were visually inspected to assure that the amount of excess solid was sufficient to permit re-characterization. If not, solubility was reported as greater than the weighed concentration of prodrug (concentrations were confirmed by HPLC). The solid phase was then separated from the liquid phase by filtration through a 13 mm 0.45 μm GHP syringe filter (Pall Corporation). The filtrate was diluted as needed for quantification of the material studied by HPLC, and the concentration of the filtrate was reported as the solubility of the prodrug in the given medium.
A short description of the next data set: physchem. The note with it: thermodynamic from solid.
Data set [2] is described as follows: In vivo regeneration of the parent compound after oral dosing of prodrug (plasma, HPLC-MS/MS). Details: species or system Sprague-Dawley rats. The note with it: rat, oral aqueous formulation by gavage, blood samples for 24 hours. Here is the method:
Male Sprague-Dawley rats, weighing 250-400 g, were obtained from Charles Rivers Laboratories. For the initial screening, each prodrug was evaluated in one group of three rats. All rats received an oral aqueous formulation (suspension or solution), administered by gavage. Sequential blood samples were obtained from a tail vein of each animal for 24 hours after dosing. Plasma was separated by centrifugation and stored frozen until analysis. Compounds were selectively removed from the plasma using protein precipitation followed by reverse phase HPLC with MS/MS detection for quantitation. Attempts were made to measure both the prodrug and the parent compounds in each sample.

Where [3] appears, read: 0.1 N aqueous HCl, 37 °C, simulated gastric fluid.

Experimental for physchem: as §1

As for `CCCCn1/c(=N/C(=O)c2cc(C(F)(F)F)ccc2OC[C@H](C)O)sc2cc[n+](COC(C)=O)cc21.[Br-]` [Example 1, (2Z)-5-[(acetyloxy)methyl]-3-butyl-2-{[2-{[(2S)-2-hydroxypropyl]oxy}-5-(trifluoromethyl)benzoyl]imino}-2,3-dihydro[1,3]thiazolo[4,5-c]pyridin-5-ium bromide], the solubility at 1 h was 2500 µg/mL in data set [1] (setting [3]) and 1800 µg/mL in data set [1] (water, 25 °C).

For the molecule `CCCCn1/c(=N/C(=O)c2cc(C(F)(F)F)ccc2OC[C@H](C)OC(=O)C(C)(C)N)sc2ccncc21` [Example 2, (1S)-2-[2-({[(2Z)-3-butyl[1,3]thiazolo[4,5-c]pyridin-2(3H)-ylidene]amino}carbonyl)-4-(trifluoromethyl)phenoxy]-1-methylethyl 2-methylalaninate], the solubility at 1 h in data set [1] (setting [3]) was 4100 µg/mL (≈ 7610 µM); in data set [1] (water, 25 °C), 2300 µg/mL (≈ 4270 µM).

With `CCCCn1/c(=N/C(=O)c2cc(C(F)(F)F)ccc2OC[C@H](C)OC(=O)CN)sc2ccncc21` [Example 3, (1S)-2-[2-({[(2Z)-3-butyl[1,3]thiazolo[4,5-c]pyridin-2(3H)-ylidene]amino}carbonyl)-4-(trifluoromethyl)phenoxy]-1-methylethyl glycinate], the solubility at 1 h was 1200 µg/mL (≈ 2350 µM) in “physchem” (25 °C, water) and above 4100 µg/mL in “physchem” (37 °C, simulated gastric fluid).

As to `CCCCn1/c(=N/C(=O)c2cc(C(F)(F)F)ccc2OC[C@H](C)O)sc2cc[n+](COC(=O)C(C)(C)C)cc21.[Cl-]` [Example 4, (2Z)-3-butyl-5-{[(2,2-dimethylpropanoyl)oxy]methyl}-2-{[2-{[(2S)-2-hydroxypropyl]oxy}-5-(trifluoromethyl)benzoyl]imino}-2,3-dihydro[1,3]thiazolo[4,5-c]pyridin-5-ium chloride], the solubility at 1 h was 200 µg/mL in data set [1] (setting [3]) and 3300 µg/mL in data set [1] (water, 25 °C).

`CCCCn1/c(=N/C(=O)c2cc(C(F)(F)F)ccc2OC[C@H](C)O)sc2cc[n+](COC(=O)c3ccccc3)cc21.[Cl-]` [Example 5, (2Z)-5-[(benzoyloxy)methyl]-3-butyl-2-{[2-{[(2S)-2-hydroxypropyl]oxy}-5-(trifluoromethyl)benzoyl]imino}-2,3-dihydro[1,3]thiazolo[4,5-c]pyridin-5-ium chloride]: the solubility at 1 h in data set [1] (setting [3]) is 16 µg/mL; in data set [1] (water, 25 °C), 740 µg/mL.

Consider `CCCCn1/c(=N/C(=O)c2cc(C(F)(F)F)ccc2OC[C@H](C)OC(=O)[C@H](C)N)sc2ccncc21` [Example 6, (1S)-2-[2-({[(2Z)-3-butyl[1,3]thiazolo[4,5-c]pyridin-2(3H)-ylidene]amino}carbonyl)-4-(trifluoromethyl)phenoxy]-1-methylethyl L-alaninate], for which the solubility at 1 h in data set [1] (setting [3]) was above 4100 µg/mL; in data set [1] (water, 25 °C), 2300 µg/mL (≈ 4380 µM).

On to `CCCCn1/c(=N/C(=O)c2cc(C(F)(F)F)ccc2OC[C@H](C)O)sc2cc[n+](COC(=O)N3CCC[C@H]3C(=O)OC)cc21.[Cl-]` [Example 7, (2Z)-3-butyl-2-{[2-{[(2S)-2-hydroxypropyl]oxy}-5-(trifluoromethyl)benzoyl]imino}-5-[({[(2S)-2-(methoxycarbonyl)pyrrolidin-1-yl]carbonyl}oxy)methyl]-2,3-dihydro[1,3]thiazolo[4,5-c]pyridin-5-ium chloride], for which the solubility at 1 h in data set [1] (setting [3]) was above 4300 µg/mL; in data set [1] (water, 25 °C), above 4300 µg/mL.

In the case of `CCCCn1/c(=N/C(=O)c2cc(C(F)(F)F)ccc2OC[C@H](C)O)sc2cc[n+](COC(=O)N(C)C)cc21.[Cl-]` [Example 8, (2Z)-3-butyl-5-({[(dimethylamino)carbonyl]oxy}methyl)-2-{[2-{[(2S)-2-hydroxypropyl]oxy}-5-(trifluoromethyl)benzoyl]imino}-2,3-dihydro[1,3]thiazolo[4,5-c]pyridin-5-ium chloride], the solubility at 1 h in data set [1] (setting [3]) is above 4000 µg/mL; in data set [1] (water, 25 °C), 3900 µg/mL.

As for `CCCCn1/c(=N/C(=O)c2cc(C(F)(F)F)ccc2OC[C@H](C)OP(=O)(O)O)sc2ccncc21` [Example 9, (1S)-2-[2-({[(2Z)-3-butyl[1,3]thiazolo[4,5-c]pyridin-2(3H)-ylidene]amino}carbonyl)-4-(trifluoromethyl)phenoxy]-1-methylethyl dihydrogen phosphate], the solubility at 1 h in data set [1] (setting [3]) was 7 µg/mL; in data set [1] (water, 25 °C) it was 830 µg/mL.

Regarding `CCCCn1/c(=N/C(=O)c2cc(C(F)(F)F)ccc2OC[C@H](C)O)sc2cc[n+]([O-])cc21` [Example 12, N-[(2Z)-3-butyl-5-oxido[1,3]thiazolo[4,5-c]pyridin-2(3H)-ylidene]-2-{[(2S)-2-hydroxypropyl]oxy}-5-(trifluoromethyl)benzamide], in data set [2], the “Parent (Example 18) detected in plasma after dosing the prodrug” value is “Measurable concentrations” and the “Prodrug detected in plasma after dosing the prodrug” value was “Measurable concentrations”.

Turning to `CCCCn1/c(=N/C(=O)c2cc(C(F)(F)F)ccc2OC[C@H](C)OC(=O)CCC(=O)O)sc2ccncc21` [Example 14, 4-({(1S)-2-[2-({[(2Z)-3-butyl[1,3]thiazolo[4,5-c]pyridin-2(3H)-ylidene]amino}carbonyl)-4-(trifluoromethyl)phenoxy]-1-methylethyl}oxy)-4-oxobutanoic acid], the solubility at 1 h in “physchem” (25 °C, water) was 73 µg/mL (≈ 132 µM); in “physchem” (37 °C, simulated gastric fluid), 10 µg/mL (≈ 18.1 µM).

Consider `CCCCn1/c(=N/C(=O)c2cc(C(F)(F)F)ccc2OC[C@H](C)OC(=O)NCCN(C)C)sc2ccncc21` [Example 15, (1S)-2-[2-({[(2Z)-3-butyl[1,3]thiazolo[4,5-c]pyridin-2(3H)-ylidene]amino}carbonyl)-4-(trifluoromethyl)phenoxy]-1-methylethyl 2-(dimethylamino)ethylcarbamate], for which, in data set [2], the “Parent (Example 18) detected in plasma after dosing the prodrug” value is “Measurable concentrations” and the “Prodrug detected in plasma after dosing the prodrug” value is “Measurable concentrations”. In addition, the solubility at 1 h in data set [1] (setting [3]) was above 4000 µg/mL. The solubility at 1 h in data set [1] (water, 25 °C) amounted to 680 µg/mL (≈ 1200 µM).

In the case of `CCCCn1/c(=N/C(=O)c2cc(C(F)(F)F)ccc2OC[C@H](C)O)sc2ccncc21` [Example 18, N-[(2Z)-3-butyl[1,3]thiazolo[4,5-c]pyridin-2(3H)-ylidene]-2-{[(2S)-2-hydroxypropyl]oxy}-5-(trifluoromethyl)benzamide], the solubility at 1 h in data set [1] (setting [3]) was 4.3 µg/mL (≈ 9.48 µM); in data set [1] (water, 25 °C), below 0.02 µg/mL.

(Values after patent US8536336B2, “Prodrug compounds useful as cannabinoid ligands” (AbbVie Inc., priority 2009, dated 2013).)
